# Measured values as given in patent US20070149481A1, “N,n-bridged, nitrogen-substituted carbacyclic indolocarbazoles as protein kinase inhibitors” (priority 2002, published 2007).
# Tests used:
# [1] = biological target: T1, PKA (catalytic subunit, bovine heart) (Bos taurus, UniProt P00517); test: Protein Kinase A inhibition assay (PKA); type: biochemical; conditions: 10 μM compound
# T1 construct: PKA (catalytic subunit, bovine heart, Calbiochem 539486); purchased Calbiochem 539486; host or cells: bovine heart (tissue-derived)
# Method: (§1) The ERK2 kinase activity assay utilizes a radioactivity-based format in a 96-well PCR plate with radioactive readout. The ERK2 activity was assayed in a 25 μL assay mixture containing 25 mM HEPES (pH 7.0), 250 μM ATP, 1 mM MgCl2, 1 mM DTT, 2% DMSO, 150 ng/mL Myelin Basic Protein (MBP, Sigma M-1891), and 13.6 ng/mL His tagged ERK2 (specific activity=38.1 nmol/min*mg). Compounds were screened for inhibition of the ERK2 kinase activity at a concentration of 10 μM. The kinase reaction was allowed to proceed at 37° C. for 30 minutes, then reaction was stopped by the addition of 5 μl of 0.5M EDTA (pH 8). 15 μL of each solution were then spotted onto the corresponding square of a filtermat (8×12 glassfibre mat 90×120 mm, PE-Wallac 1450-421). The filtermat was allowed to dry and washed once with 10% TCA, 2% PPA, 500 mM NaCl each for 30 minutes at rt. Two further washings in 10% TCA and 2% PPA for 30 minutes were performed, then a final 30 minute wash in 99% EtOH at rt was done and the filtermat was air dried. The dry filtermat was then placed in a sample bag with a Meltilex sheet (Melt-on scintillator sheets 73×109 mm, PE-Wallac 1450-441 for filtermat A) over the filtermat. The bag was trimmed to fit into the microplate heatsealer (PE-Wallac 1495-021). The heatsealer is used to melt the Meltilex on the filtermat. The bag containing the filtermat and the melted Meltilex was then placed into a filter cassette and counted using the Microbeta Jet Scintillation and Luminescence Counter PE-Wallac 1450.
# The PKA kinase activity assay utilizes a radioactivity-based format in a 96-well PCR plate with radioactive readout. The PKA activity was assayed in a 25 μL assay mixture containing 25 mM HEPES (pH 7.0), 250 μM ATP, 10 mM MgCl2, 1 mM DTT, 1 mM EDTA (pH 8). 2% DMSO. 250 ng/mL Histone H2B (Roche 223 514), and 2 ng/mL PKA (catalytic subunit, bovine heart, Calbiochem 539486, specific activity=1170 pmol/min*μg). Compounds were screened for inhibition of the PKA kinase activity at a concentration of 10 μM. The kinase reaction was allowed to proceed at 37° C. for 30 minutes, then the reaction was stopped by addition of 5 μL of 0.5M EDTA (pH 8). The remainder of the protocol is identical to the one reported for ERK2.
# His tagged ERK2 = His tagged ERK2 (Homo sapiens, UniProt P28482); test: Extracellular signal Regulated Kinase 2 inhibition assay (ERK2), radioactive filtermat format; type: biochemical; conditions: 10 μM compound
# Method: as §1
# [2] = Determination of brain/plasma ratios for NAD0241 and comparison with NAD0180 (Example 56E); type: in vivo, Wistar Han Rats; conditions: rats, 5 mg/kg i.v., 1 hour post-administration
# Method: Application of Compound: 5 mg/kg of NAD 241 and NAD0180 each in a vehicle of 1.5 mL/kg PEG 400 Macrogol Ph. Eur. were applied i.v. through the femoral vein to two groups (n=3) of Wistar Han Rats weighing between 240-270 g. The application was performed under anaesthesia, initiated with 3.5% Isofluorane/O2, then maintained at 1% during compound application and suture of the vein. 200 μL of local anaesthetic lidocaine were locally administered. 1 hour after application of the compound 200 μl of blood were obtained by tail vein incision. Immediately following the blood sampling rats were terminated by decapitation after brief CO2 anaesthesia Brains were resected and weighed. Plasma was obtained by centrifugation of the tail vein blood at 13000 g for 20 minutes at 4° C. […]
# Establishment of Extraction Recovery and Standard Curve for NAD0241 and NAD0180: 100 μL of plasma or 0.5 g brain tissue homogenate in saturated NaCl, obtained from control rats, were spiked with NAD0241 and NAD0180, respectively, to produce concentrations ranging from 1 ng/mL to 5 μg/mL. […] Quantitative analysis of the extracts was performed by HPLC with fluorescence detection. […] Fluorescence detection and quantitation by peak area was performed with a G1321A (Agilent Tech 1100 series) detector at excitation and emission wavelengths of 317 nm and 542 nm, respectively, for NAD0241, and 315 nm and 565 nm for NAD0180. […]
# Chain of His tagged ERK2 (P28482 whole entry): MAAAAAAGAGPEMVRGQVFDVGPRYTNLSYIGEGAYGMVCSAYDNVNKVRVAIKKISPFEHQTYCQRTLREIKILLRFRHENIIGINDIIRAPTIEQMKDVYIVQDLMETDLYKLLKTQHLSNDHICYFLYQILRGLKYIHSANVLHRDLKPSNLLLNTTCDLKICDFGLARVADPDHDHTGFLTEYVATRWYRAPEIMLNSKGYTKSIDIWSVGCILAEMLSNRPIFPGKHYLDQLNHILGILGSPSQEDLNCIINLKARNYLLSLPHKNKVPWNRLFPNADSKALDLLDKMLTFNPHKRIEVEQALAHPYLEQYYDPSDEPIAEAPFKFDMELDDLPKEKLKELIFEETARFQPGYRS
smiles,measurement,setting,value
NC(=O)[C@]1(N)CC2CC1n1c3ccccc3c3c4c(c5c6ccccc6n2c5c31)C(=O)NC4=O (mixture of isomers) [Compound 5],inhibition at 10 µM,[1],96.8%
same,inhibition at 10 µM,His tagged ERK2,92.3%
same,brain/plasma ratio fold difference vs NAD0180 at 1 h,"[2]; Wistar Han, rat, brain and plasma, iv",> 30 fold
same,ability to pass the BBB / blood-brain barrier penetration,[2]; NAD0241 vs NAD0180,pass more readily the BBB
